Measurements taken from the NIST ThermoML archive (doi:10.1021/acs.jced.7b00713).

Test: molar heat capacity at constant pressure
Details: Liquid, Flow calorimetry

F/C=C/C(F)(F)F [trans-1,3,3,3-tetrafluoropropene]
Details | molar heat capacity at constant pressure [J/K/mol]
313.46 K, 3000 kPa | 160.8
313.47 K, 3980 kPa | 158.97
313.47 K, 4490 kPa | 157.95
313.48 K, 3490 kPa | 159.89
313.48 K, 5010 kPa | 157.04
313.49 K, 1040 kPa | 165.36
313.49 K, 5490 kPa | 156.58
313.49 K, 6010 kPa | 155.67
313.49 K, 6990 kPa | 153.61
313.49 K, 7470 kPa | 152.93
313.5 K, 1510 kPa | 164.22
313.5 K, 7990 kPa | 152.36
313.51 K, 2010 kPa | 163.08
313.51 K, 6510 kPa | 154.53
313.51 K, 8500 kPa | 151.79
313.52 K, 2480 kPa | 162.4
313.52 K, 8990 kPa | 150.99
313.52 K, 9510 kPa | 150.65
313.53 K, 10000 kPa | 149.96
323.28 K, 3520 kPa | 163.76
323.28 K, 4030 kPa | 162.4
323.29 K, 4530 kPa | 161.25
323.29 K, 4990 kPa | 160.46
323.29 K, 7490 kPa | 155.89
323.29 K, 8010 kPa | 154.75
323.29 K, 8520 kPa | 154.18
323.29 K, 9040 kPa | 153.04
323.31 K, 5490 kPa | 159.66
323.31 K, 7030 kPa | 156.92
323.32 K, 3010 kPa | 164.68
323.32 K, 6010 kPa | 158.63
323.33 K, 1510 kPa | 168.9
323.33 K, 2010 kPa | 167.41
323.33 K, 2500 kPa | 165.93
323.33 K, 6480 kPa | 157.83
323.34 K, 9490 kPa | 152.7
323.36 K, 10010 kPa | 151.79
333.08 K, 1550 kPa | 178.13
333.08 K, 2060 kPa | 175.62
333.11 K, 2510 kPa | 173.69
333.11 K, 3500 kPa | 170.26
333.13 K, 3030 kPa | 172.09
333.13 K, 7490 kPa | 160.8
333.14 K, 8040 kPa | 159.32
333.15 K, 4000 kPa | 169.01
333.15 K, 6520 kPa | 162.4
333.15 K, 7020 kPa | 161.37
333.16 K, 6010 kPa | 163.54
333.16 K, 8500 kPa | 158.75
333.18 K, 4980 kPa | 166.27
333.18 K, 5500 kPa | 164.56
333.19 K, 4500 kPa | 167.76
333.19 K, 9020 kPa | 158.06
333.2 K, 10080 kPa | 155.89
333.21 K, 9510 kPa | 157.38
343.53 K, 2040 kPa | 185.77
343.57 K, 2550 kPa | 183.04
343.57 K, 3000 kPa | 180.3
343.59 K, 3540 kPa | 178.36
343.6 K, 4040 kPa | 175.74
343.61 K, 4540 kPa | 173.23
343.62 K, 5040 kPa | 171.75
343.62 K, 5510 kPa | 169.69
343.62 K, 10070 kPa | 157.61
343.63 K, 9080 kPa | 160
343.63 K, 9530 kPa | 159.09
343.64 K, 6050 kPa | 168.44
343.64 K, 6590 kPa | 166.61
343.64 K, 7070 kPa | 165.25
343.64 K, 7510 kPa | 163.88
343.64 K, 8090 kPa | 162.17
343.65 K, 8480 kPa | 160.91
353.55 K, 2550 kPa | 196.49
353.55 K, 3510 kPa | 188.4
353.58 K, 3040 kPa | 192.05
353.61 K, 5010 kPa | 178.36
353.61 K, 5510 kPa | 176.54
353.62 K, 6040 kPa | 175.17
353.64 K, 4520 kPa | 181.44
353.64 K, 6530 kPa | 173.69
353.64 K, 7050 kPa | 172.54
353.65 K, 7500 kPa | 171.63
353.65 K, 7970 kPa | 170.72
353.66 K, 4050 kPa | 184.52
353.67 K, 8480 kPa | 170.04
353.68 K, 9030 kPa | 168.67
353.68 K, 9510 kPa | 168.21
353.68 K, 10090 kPa | 166.96
363.56 K, 3500 kPa | 207.67
363.56 K, 4000 kPa | 200.03
363.57 K, 3000 kPa | 219.53
363.61 K, 4510 kPa | 194.78
363.61 K, 5520 kPa | 186.46
363.62 K, 4990 kPa | 190.34
363.63 K, 6020 kPa | 182.81
363.64 K, 6520 kPa | 180.19
363.64 K, 6990 kPa | 177.33
363.64 K, 7530 kPa | 175.05
363.64 K, 8010 kPa | 173.12
363.65 K, 8530 kPa | 171.4
363.65 K, 9050 kPa | 170.15
363.66 K, 9450 kPa | 169.01
363.66 K, 9990 kPa | 167.76
373.35 K, 3540 kPa | 259.44
373.42 K, 4030 kPa | 231.73
373.42 K, 4510 kPa | 216.91
373.43 K, 5010 kPa | 206.42
373.44 K, 5540 kPa | 199.23
373.47 K, 6020 kPa | 194.1
373.48 K, 7010 kPa | 185.66
373.49 K, 6530 kPa | 189.54
373.49 K, 7500 kPa | 183.04
373.5 K, 8030 kPa | 179.62
373.51 K, 8510 kPa | 177.45
373.56 K, 9050 kPa | 175.4
373.57 K, 9430 kPa | 174.48
373.59 K, 9990 kPa | 172.66
391.65 K, 4520 kPa | 525.5
392.2 K, 5020 kPa | 310.99
392.38 K, 5470 kPa | 257.73
392.46 K, 6010 kPa | 226.37
392.52 K, 6540 kPa | 210.06
392.57 K, 7060 kPa | 200.6
392.6 K, 7560 kPa | 194.55
392.63 K, 8030 kPa | 191.02
392.67 K, 8510 kPa | 189.88
392.72 K, 9070 kPa | 188.05
392.75 K, 10000 kPa | 187.03
392.77 K, 9520 kPa | 188.51
392.77 K, 10010 kPa | 187.48
